Reference: patent US20020022052A1, “Transdermal delivery system” (priority 2000, published 2002)

Key:
[1] = bovine
Procedure: All final tests were carried out with HPLC analysis.

[2] = ascorbic acid content above 14% by weight, water based; cited from earlier work
[3] = Skin tolerability trials of ascorbic acid admixtures; settings: water free carriers, ascorbic acid levels as high as 35%
Source text: In addition, acidity is a function of the ionic dissociation of a material in solution. In most circumstances water is the primary dissociation medium and so solutions free of water generally have lower acidity. […] While it is impossible to totally exclude water, as there are minute traces in the ingredients utilized as carriers, acidity is kept to a minimum in what are essentially water free admixtures.

[4] = Maximum achieved massage induced skin load (400 g vibrator, 10 minutes); settings: particle size 1 micron ± 0.25 um
Source text: To counter this problem, Franz Diffusion Cells using the widely accepted Perfused Bovine Udder Skin model were fitted with vibrators which held a soft plastic head against the test skin in a massaging action. The vibrator was allowed to move randomly over the test sample using its own mass to provide the pressure. The total weight of a vibrator and head was 180 grams and the massage heads were 1.2 cm in diameter. The vibrators provided a massage pressure well below that which would be applied by a person finger massaging cream into the skin.
Testing was done by preparing sample creams as discussed below. Each sample was weighed and spread on the test skin. At this point the sample was subject to five minutes of the massage action described and then the remaining cream was removed and skin surface wiped dry. The weight of the absorbed amount was determined by weighing the removed material. The cell was not capped, the skin being left exposed to the air.
Tests were carried out to determine the maximum of both admixture and dry powder that could be induced into the stratum corneum. The vibrator weight was increased to 400 grams and vibration time to 10 minutes. Zinc gluconate (being of particular interest) was used as the active for these tests.

Row | Molecule | particle size at which absorption began to be demonstrated [1] | skin reactions [2] | subjective discomfort compared with 12% water based admixture [3] | tolerability [3] | Maximum loading ([4]; carrier Eutanol G) [micrograms/cm^2] | Maximum loading ([4]; carrier Nil (dry powder)) [micrograms/cm^2]
1 | O=C1O[C@H]([C@@H](O)CO)C(O)=C1O [ascorbic acid] | below 7 microns | burning, stinging and other skin reactions | less discomfort | well tolerated | – | –
2 | zinc gluconate | – | – | – | – | 1.2 | 0.6
